# Source: patent publication US5466784A, “Monoclonal antibodies to salinomycin and method for detecting the same” (The United States of America as represented by the …, priority 1993, dated 1995)
# What was measured:
# [1] = test system: the 16 anti-salinomycin monoclonal antibodies SAL02-SAL13 and SAL22-SAL25; assay: Competitive inhibition ELISA, result stated for the antibodies as a group; assay type: binding, mouse
# Experimental: (§1) The supernatant culture fluid from the cloned hybridomas may also be screened to select for those producing antibodies having a high affinity for salinomycin. Affinity my be measured using a variety of well known techniques, such as ELISA, RIA or equilibrium dialysis using labelled salinomycin. […] In accordance with this embodiment, the antibody containing supernatant is added to a salinomycin coated solid substrate such as the wells of an assay plate, together with a range of concentrations of free salinomycin as a competitor. Following incubation and washing, bound antibody in the wells is determined in the same manner as the db-ELISA. Percent inhibition may be calculated as (1-B/BO)×100 where B is the OD of a well with a competitor and BO is the mean OD of the wells without competitor (control). […] However, for even greater accuracy, the affinity may be alternatively measured at 50% inhibition (IC50).
# (§2) For the competitive inhibition ELISA, the wells of a 96-well microtiter plate were coated with 250 ng SAL-BSA and blocked with ovalbumin as previously described. Two hundred μL of a competitor (free salinomycin at 20-100 ng/100 μL) in assay buffer, were added to row 2 of an antigen-coated well. The remaining wells in that row received 100 μL of assay buffer. A 100 μL aliquot of competitor was withdrawn from row 2 and serially diluted across the microtiter plate into wells 3-10. Wells 11 and 12 received no competitor. […] Plates were incubated for 1-h at 37° C. and processed as described above in the db ELISA. Percent inhibition was calculated by the following method: (1-B/B0)×100where B=the OD of a well with a competitor and B0 =mean ODs of the wells without competitor (i.e. wells 11 and 12).
# (§3) Antibody Characterization. The 16 monoclonal antibodies were further evaluated for their ability to distinguish between commonly used ionophoric coccidiostats. The competitive inhibition ELISA described supra was repeated with the ionophores salinomycin (SAL), narasin (NAR), lasalocid (LAS) and monensin (MON) as competitors.
# [2] = test system: anti-salinomycin monoclonal antibody SAL09 (IgG2a, kappa); assay: Competitive inhibition ELISA (SAL-BSA coated wells); assay type: binding, mouse; details: mean ± SD, n = 10 assays
# Experimental: as §1, §2, §3
# [3] = test system: anti-salinomycin monoclonal antibody SAL24 (IgG2a, kappa); assay: as above; assay type: binding, mouse; details: mean ± SD, n = 10 assays
# Experimental: as §1, §2, §3
# [4] = test system: anti-salinomycin monoclonal antibody SAL07 (IgG2a, kappa); assay: as above; assay type: binding, mouse; details: mean ± SD, n = 10 assays
# Experimental: as §1, §2, §3
# [5] = test system: anti-salinomycin monoclonal antibody SAL03 (IgG2a, kappa); assay: as above; assay type: binding, mouse; details: mean ± SD, n = 10 assays
# Experimental: as §1, §2, §3
# [6] = test system: anti-salinomycin monoclonal antibody SAL11 (IgG2a, kappa); assay: as above; assay type: binding, mouse; details: mean ± SD, n = 10 assays
# Experimental: as §1, §2, §3
# [7] = test system: anti-salinomycin monoclonal antibody SAL23 (IgG2a, kappa); assay: as above; assay type: binding, mouse; details: mean ± SD, n = 10 assays
# Experimental: as §1, §2, §3
# [8] = test system: anti-salinomycin monoclonal antibody SAL13 (IgG2a, kappa); assay: as above; assay type: binding, mouse; details: mean ± SD, n = 10 assays
# Experimental: as §1, §2, §3
# [9] = test system: anti-salinomycin monoclonal antibody SAL22 (IgG2a, kappa); assay: as above; assay type: binding, mouse; details: mean ± SD, n = 10 assays
# Experimental: as §1, §2, §3
# [10] = test system: anti-salinomycin monoclonal antibody SAL12 (IgG2a, kappa); assay: as above; assay type: binding, mouse; details: mean ± SD, n = 10 assays
# Experimental: as §1, §2, §3
# [11] = test system: anti-salinomycin monoclonal antibody SAL04 (IgG2a, kappa); assay: as above; assay type: binding, mouse; details: mean ± SD, n = 10 assays
# Experimental: as §1, §2, §3
# [12] = test system: anti-salinomycin monoclonal antibody SAL25 (IgG2a, kappa); assay: as above; assay type: binding, mouse; details: mean ± SD, n = 10 assays
# Experimental: as §1, §2, §3
# [13] = test system: anti-salinomycin monoclonal antibody SAL02 (IgG2a, kappa; hybridoma ATCC HB 11954); assay: as above; assay type: binding, mouse; details: mean ± SD, n = 10 assays
# Experimental: as §1, §2, §3
# [14] = test system: anti-salinomycin monoclonal antibody SAL05 (IgG2a, kappa); assay: as above; assay type: binding, mouse; details: for Mean 50% Inhibition Value (IC50) of competitor: mean ± SD, n = 10 assays
# Experimental: as §1, §2, §3
# [15] = test system: anti-salinomycin monoclonal antibody SAL08 (IgG2a, kappa); assay: as above; assay type: binding, mouse; details: mean ± SD, n = 10 assays
# Experimental: as §1, §2, §3
# [16] = test system: anti-salinomycin monoclonal antibody SAL10 (IgG2a, kappa); assay: as above; assay type: binding, mouse; details: for Mean 50% Inhibition Value (IC50) of competitor: mean ± SD, n = 10 assays
# Experimental: as §1, §2, §3
# [17] = test system: anti-salinomycin monoclonal antibody SAL06 (IgG2a, kappa); assay: as above; assay type: binding, mouse; details: mean ± SD, n = 10 assays
# Experimental: as §1, §2, §3
# [18] = test system: monoclonal antibodies to salinomycin of Miller et al. (immunogen linked through succinate at C-20); details: prior art antibodies; cited from earlier work
# [19] = at or below 100 ng/well (10 ppm), Table I footnote
# [20] = at or below 1000 ng/well, all 16 antibodies
SMILES,"inhibition of antigen-antibody binding by competitor [1, 19]","inhibition of antigen-antibody binding by competitor [1, 20]",Mean 50% Inhibition Value (IC50) of competitor [2] [ng/well],Mean 50% Inhibition Value (IC50) of competitor [3] [ng/well],Mean 50% Inhibition Value (IC50) of competitor [4] [ng/well],Mean 50% Inhibition Value (IC50) of competitor [5] [ng/well],Mean 50% Inhibition Value (IC50) of competitor [6] [ng/well],Mean 50% Inhibition Value (IC50) of competitor [7] [ng/well],Mean 50% Inhibition Value (IC50) of competitor [8] [ng/well],Mean 50% Inhibition Value (IC50) of competitor [9] [ng/well],Mean 50% Inhibition Value (IC50) of competitor [10] [ng/well],Mean 50% Inhibition Value (IC50) of competitor [11] [ng/well],Mean 50% Inhibition Value (IC50) of competitor [12] [ng/well],Mean 50% Inhibition Value (IC50) of competitor [13] [ng/well],Mean 50% Inhibition Value (IC50) of competitor [14] [ng/well],Mean 50% Inhibition Value (IC50) of competitor [15] [ng/well],Mean 50% Inhibition Value (IC50) of competitor [16] [ng/well],Mean 50% Inhibition Value (IC50) of competitor [17] [ng/well],further results
CC[C@@H](C(=O)[C@@H](C)[C@@H](O)[C@H](C)CCc1ccc(C)c(O)c1C(=O)O)[C@H]1O[C@](CC)([C@H]2CC[C@](O)(CC)[C@H](C)O2)C[C@@H]1C [lasalocid],Neither Lasalocid or Monensin inhibited the antigenantibody binding,no inhibition of antigen-antibody binding,,,,,,,,,,,,,,,,,
CC[C@@]1([C@@H]2O[C@@H]([C@H]3O[C@@](O)(CO)[C@H](C)C[C@@H]3C)C[C@@H]2C)CC[C@H]([C@]2(C)CC[C@]3(C[C@H](O)[C@@H](C)[C@@H]([C@@H](C)[C@@H](OC)[C@H](C)C(=O)O)O3)O2)O1 [monensin],Neither Lasalocid or Monensin inhibited the antigenantibody binding,no inhibition of antigen-antibody binding,,,,,,,,,,,,,,,,,
CC[C@@H](C(=O)O)[C@@H]1O[C@@H]([C@@H](C)[C@H](O)[C@H](C)C(=O)[C@H](CC)[C@H]2O[C@]3(C=C[C@@H](O)[C@]4(CC[C@@](C)([C@H]5CC[C@](O)(CC)[C@H](C)O5)O4)O3)[C@H](C)C[C@@H]2C)[C@@H](C)C[C@@H]1C [narasin],,,1.17 ± 0.27,0.98 ± 0.46,0.93 ± 0.85,0.82 ± 0.58,0.69 ± 0.28,0.99 ± 0.25,0.55 ± 0.20,0.51 ± 0.09,0.67 ± 0.19,0.34 ± 0.15,0.68 ± 0.34,0.97 ± 0.97,0.52 ± 0.62,1.09 ± 0.15,1.18 ± 0.49,0.39 ± 0.15,
CC[C@@H](C(=O)[C@@H](C)[C@@H](O)[C@H](C)[C@@H]1O[C@@H]([C@@H](CC)C(=O)O)CC[C@@H]1C)[C@H]1O[C@]2(C=C[C@@H](O)[C@]3(CC[C@@](C)([C@H]4CC[C@](O)(CC)[C@H](C)O4)O3)O2)[C@H](C)C[C@@H]1C [salinomycin],,,0.97 ± 0.28,1.15 ± 0.45,1.44 ± 1.28,0.78 ± 0.72,0.57 ± 0.25,0.92 ± 0.15,0.75 ± 0.49,0.56 ± 0.23,0.49 ± 0.28,0.35 ± 0.17,0.61 ± 0.18,0.62 ± 0.11,0.33 ± 0.10,0.60 ± 0.30,1.76 ± 0.29,0.78 ± 0.62,concentration that resulted in 20% inhibition (IC20) of control activity ([14]; free salinomycin as competitor): 0.174 ng; concentration that resulted in 50% inhibition IC50 ([14]; free salinomycin as competitor): 0.33 ng; concentration that resulted in 20% inhibition (IC20) of control activity ([16]; free salinomycin as competitor): 0.793 ng; concentration that resulted in 50% inhibition IC50 ([16]; free salinomycin as competitor): 1.76 ng; detection limit (reported) [18]: 50 ng; sensitivity (reported) [18]: 50 ng per well
